Results: ChEMBL document CHEMBL4831556, “Discovery of a Novel Potent and Selective Calcium Release-Activated Calcium Channel Inhibitor: 2,6-Difluoro-N-(2'-methyl-3'-(4-methyl-5-oxo-4,5-dihydro-1,3,4-oxadiazol-2-yl)-[1,1'-biphenyl]-4-yl)benzamide. Structure-Activity Relationship and Preclinical Characterization” (J Med Chem, 2021)
Values joined by “and” are separate entries in the source; they are usually repeats but may differ in a detail not shown here. Equal values may be shown once. Values belong to the molecule of their own block, whether it stands above or below them.

What was measured:
[1] = Cmax in CFA-induced rheumatoid arthritis Lewis rat model at 3 mg/kg, po administered once daily for 15 days; format: ADME, organism-based; design: route oral, time 15 day, dose 3 mg/kg; conditions: in vivo
[2] = AUClast in BALB/c mouse model of mBSA-induced delayed type hypersensitivity at 3 mg/kg, po administered twice daily for 7 days followed by mBSA challenge and measured after 24 hrs; format: ADME, organism-based; design: route oral, time 8 day, dose 3 mg/kg; conditions: in vivo
[3] = AUClast in collagen-induced rheumatoid arthritis DBA/1J mouse model at 3 mg/kg, po administered twice daily for 15 days in presence of 0.75 mg/kg of methotrexate; format: ADME, organism-based; design: route oral, dose 3 mg/kg, time 15 day; conditions: in vivo
[4] = Cmax in human whole blood at 80 mg, bid; format: ADME, tissue-based; design: dose 80 mg
[5] = Metabolic stability in human liver microsomes preincubated for 5 mins followed by NADPH addition and measured upto 30 mins by LC-MS/MS analysis; format: ADME, Microsome; conditions: 0.5 h, time <=35 min
[6] = Cmax in rat at 60 mg/kg/day after 2 weeks; format: ADME, organism-based; design: time 2 weeks, dose 60 mg/kg/day; conditions: in vivo
[7] = Tmax in Lewis rat at 1 mg/kg, iv measured upto 24 hrs by LC-MS/MS analysis; format: ADME, organism-based; conditions: in vivo
[8] = AUClast in Lewis rat at 1 mg/kg, iv measured upto 24 hrs by LC-MS/MS analysis; format: ADME, organism-based; design: route intravenous, dose 1 mg/kg, time <=24; conditions: in vivo
[9] = Toxicity in human assessed as minimum effective dose
[10] = Tmax in CFA-induced rheumatoid arthritis Lewis rat model at 3 mg/kg, po administered once daily for 15 days; format: ADME, organism-based; conditions: in vivo, time 15 day
[11] = Cmax in rat at 1 mg/kg/day; format: ADME, organism-based; design: dose 1 mg/kg/day; conditions: in vivo
[12] = Tmax in collagen-induced rheumatoid arthritis DBA/1J mouse model at 3 mg/kg, po administered twice daily for 15 days; format: ADME, organism-based; conditions: in vivo, time 15 day
[13] = Tmax in Lewis rat at 10 mg/kg, po measured upto 24 hrs by LC-MS/MS analysis; format: ADME, organism-based; conditions: in vivo
[14] = Trough concentration in human whole blood at 80 mg, bid; format: ADME, tissue-based; conditions: read-out: Cmin
[15] = AUClast in CFA-induced rheumatoid arthritis Lewis rat model at 3 mg/kg, po administered once daily for 15 days; format: ADME, organism-based; design: route oral, time 15 day, dose 3 mg/kg; conditions: in vivo
[16] = AUClast in BALB/c mouse model of mBSA-induced delayed type hypersensitivity at 1 mg/kg, po administered twice daily for 7 days followed by mBSA challenge and measured after 24 hrs; format: ADME, organism-based; design: route oral, dose 1 mg/kg, time 8 day; conditions: in vivo
[17] = Cmax in collagen-induced rheumatoid arthritis DBA/1J mouse model at 3 mg/kg, po administered twice daily for 15 days; format: ADME, organism-based; design: route oral, time 15 day, dose 3 mg/kg; conditions: in vivo
[18] = Tmax in BALB/c mouse at 1 mg/kg, iv measured upto 24 hrs by LC-MS/MS analysis; format: ADME, organism-based; conditions: in vivo
[19] = Cmax in collagen-induced rheumatoid arthritis DBA/1J mouse model at 3 mg/kg, po administered twice daily for 15 days in presence of 0.75 mg/kg of methotrexate; format: ADME, organism-based; design: route oral, dose 3 mg/kg, time 15 day; conditions: in vivo
[20] = Tmax in BALB/c mouse model of mBSA-induced delayed type hypersensitivity at 10 mg/kg, po administered twice daily for 7 days followed by mBSA challenge and measured after 24 hrs; format: ADME, organism-based; conditions: in vivo, time 8 day
Cytochrome P450 1A2 = target: T1, Cytochrome P450 1A2 (Homo sapiens, UniProt P05177); assay: Inhibition of CYP1A2 in human liver microsomes at 10 uM by LC-MS/MS analysis; format: ADME
T1 sequence (P05177 whole entry): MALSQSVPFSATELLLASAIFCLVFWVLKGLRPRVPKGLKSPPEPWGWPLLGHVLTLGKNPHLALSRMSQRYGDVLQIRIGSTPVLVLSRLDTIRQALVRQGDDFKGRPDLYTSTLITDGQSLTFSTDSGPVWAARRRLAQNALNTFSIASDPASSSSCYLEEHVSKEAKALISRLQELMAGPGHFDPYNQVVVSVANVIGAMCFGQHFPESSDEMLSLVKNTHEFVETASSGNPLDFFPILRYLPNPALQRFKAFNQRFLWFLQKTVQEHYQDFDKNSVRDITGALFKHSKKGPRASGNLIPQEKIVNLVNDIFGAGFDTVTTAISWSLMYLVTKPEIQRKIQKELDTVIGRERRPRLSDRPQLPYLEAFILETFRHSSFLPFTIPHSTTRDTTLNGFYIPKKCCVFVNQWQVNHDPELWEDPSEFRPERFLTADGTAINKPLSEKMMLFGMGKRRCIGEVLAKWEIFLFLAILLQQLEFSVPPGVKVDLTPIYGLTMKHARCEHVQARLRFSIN

[21] = Cmax in BALB/c mouse model of mBSA-induced delayed type hypersensitivity at 10 mg/kg, po administered twice daily for 7 days followed by mBSA challenge and measured after 24 hrs; format: ADME, organism-based; design: route oral, dose 10 mg/kg, time 8 day; conditions: in vivo
[22] = Cmax in BALB/c mouse model of mBSA-induced delayed type hypersensitivity at 1 mg/kg, po administered twice daily for 7 days followed by mBSA challenge and measured after 24 hrs; format: ADME, organism-based; design: route oral, time 8 day, dose 1 mg/kg; conditions: in vivo
[23] = Cmax in human whole blood at 160 mg, qd; format: ADME, tissue-based; design: dose 160 mg
ORAI1/STIM1 = ORAI1/STIM1 (Homo sapiens, UniProt Q13586+Q96D31); assay: Inhibition of Orai1/STIM1 (unknown origin) expressed in HEK293 cells assessed as reduction in Ca2+-release activated Ca2+ entry current by manual patch clamp based electrophysiological method; format: cell-based
ORAI1/STIM1, sequence (Q96D31 whole entry): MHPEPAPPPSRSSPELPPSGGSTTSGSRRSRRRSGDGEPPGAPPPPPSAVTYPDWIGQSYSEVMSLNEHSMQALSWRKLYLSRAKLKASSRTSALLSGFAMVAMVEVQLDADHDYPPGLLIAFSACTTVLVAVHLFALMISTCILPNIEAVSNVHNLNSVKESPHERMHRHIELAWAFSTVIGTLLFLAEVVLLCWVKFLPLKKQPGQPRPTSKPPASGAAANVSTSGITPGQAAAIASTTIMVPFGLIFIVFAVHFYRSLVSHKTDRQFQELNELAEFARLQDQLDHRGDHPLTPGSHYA
ORAI1/STIM1, sequence (Q13586 whole entry): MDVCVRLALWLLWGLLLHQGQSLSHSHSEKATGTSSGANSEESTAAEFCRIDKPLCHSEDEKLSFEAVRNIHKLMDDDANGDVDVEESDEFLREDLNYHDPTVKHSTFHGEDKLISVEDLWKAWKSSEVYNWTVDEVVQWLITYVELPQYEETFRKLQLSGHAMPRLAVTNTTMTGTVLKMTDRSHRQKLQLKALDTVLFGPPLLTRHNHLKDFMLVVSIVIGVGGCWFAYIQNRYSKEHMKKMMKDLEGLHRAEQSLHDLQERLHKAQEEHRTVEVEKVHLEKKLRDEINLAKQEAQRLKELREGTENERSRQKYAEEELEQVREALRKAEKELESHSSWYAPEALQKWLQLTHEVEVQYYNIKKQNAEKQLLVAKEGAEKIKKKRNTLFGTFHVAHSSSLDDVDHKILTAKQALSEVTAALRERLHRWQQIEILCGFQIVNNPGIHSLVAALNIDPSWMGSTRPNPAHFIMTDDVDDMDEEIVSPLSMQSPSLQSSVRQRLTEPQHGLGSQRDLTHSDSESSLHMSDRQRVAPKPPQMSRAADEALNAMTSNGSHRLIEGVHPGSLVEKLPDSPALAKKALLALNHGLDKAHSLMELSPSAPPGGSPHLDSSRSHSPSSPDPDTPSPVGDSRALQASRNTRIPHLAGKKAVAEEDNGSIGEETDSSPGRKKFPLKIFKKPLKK

[24] = Tmax in BALB/c mouse model of mBSA-induced delayed type hypersensitivity at 1 mg/kg, po administered twice daily for 7 days followed by mBSA challenge and measured after 24 hrs; format: ADME, organism-based; conditions: in vivo, time 8 day
[25] = Tmax in collagen-induced rheumatoid arthritis DBA/1J mouse model at 3 mg/kg, po administered twice daily for 15 days in presence of 0.75 mg/kg of methotrexate; format: ADME, organism-based; conditions: in vivo, time 15 day
[26] = Toxicity in rat assessed as minimum effective dose; conditions: in vivo
[27] = AUC(0 to t) in human at […] measured on day 14; format: ADME, organism-based; design: time 14 day; conditions: in vivo
[28] = Cmax in human at […] measured on day 14; format: ADME, organism-based; design: time 14 day; conditions: in vivo
[29] = Metabolic stability in rat liver microsomes preincubated for 5 mins followed by NADPH addition and measured upto 30 mins by LC-MS/MS analysis; format: ADME, Microsome; conditions: 0.5 h, time <=35 min
[30] = target: Voltage-gated inwardly rectifying potassium channel KCNH2 (Homo sapiens, UniProt Q12809); assay: Inhibition of human ERG by FLIPR TETRA method
Voltage-gated inwardly rectifying potassium channel KCNH2, sequence (Q12809 whole entry): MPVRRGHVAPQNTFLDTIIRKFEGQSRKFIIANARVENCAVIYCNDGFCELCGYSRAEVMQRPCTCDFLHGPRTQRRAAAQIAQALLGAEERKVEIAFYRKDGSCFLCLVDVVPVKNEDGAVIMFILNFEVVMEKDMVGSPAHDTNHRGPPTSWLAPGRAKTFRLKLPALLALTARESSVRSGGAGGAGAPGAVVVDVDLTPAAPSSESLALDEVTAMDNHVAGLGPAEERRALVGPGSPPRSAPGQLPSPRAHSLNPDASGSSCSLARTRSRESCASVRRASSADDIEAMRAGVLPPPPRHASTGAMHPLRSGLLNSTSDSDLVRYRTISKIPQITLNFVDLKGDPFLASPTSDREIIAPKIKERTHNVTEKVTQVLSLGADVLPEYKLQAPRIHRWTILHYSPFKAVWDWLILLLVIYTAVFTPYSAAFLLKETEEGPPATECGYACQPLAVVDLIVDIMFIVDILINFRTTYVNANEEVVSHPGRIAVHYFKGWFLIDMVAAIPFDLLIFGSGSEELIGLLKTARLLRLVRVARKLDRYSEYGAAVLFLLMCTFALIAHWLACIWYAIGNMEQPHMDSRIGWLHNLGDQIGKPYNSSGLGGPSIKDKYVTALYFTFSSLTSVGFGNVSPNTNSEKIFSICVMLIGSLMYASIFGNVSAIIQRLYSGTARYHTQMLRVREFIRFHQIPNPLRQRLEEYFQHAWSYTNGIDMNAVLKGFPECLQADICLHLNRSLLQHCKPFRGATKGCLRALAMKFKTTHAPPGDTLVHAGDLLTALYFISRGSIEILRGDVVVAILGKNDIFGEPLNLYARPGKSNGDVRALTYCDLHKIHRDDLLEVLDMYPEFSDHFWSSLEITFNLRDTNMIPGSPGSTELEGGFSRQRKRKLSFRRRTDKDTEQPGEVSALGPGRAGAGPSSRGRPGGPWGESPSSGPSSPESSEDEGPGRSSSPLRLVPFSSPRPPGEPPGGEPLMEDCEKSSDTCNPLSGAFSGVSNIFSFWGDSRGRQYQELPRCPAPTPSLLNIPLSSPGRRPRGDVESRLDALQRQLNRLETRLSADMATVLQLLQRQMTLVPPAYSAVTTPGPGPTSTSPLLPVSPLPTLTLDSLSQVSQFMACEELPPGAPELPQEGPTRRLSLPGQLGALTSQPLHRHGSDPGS

[31] = Cmax in CFA-induced rheumatoid arthritis Lewis rat model at 1 mg/kg, po administered once daily for 15 days; format: ADME, organism-based; design: route oral, dose 1 mg/kg, time 15 day; conditions: in vivo
[32] = AUClast in CFA-induced rheumatoid arthritis Lewis rat model at 1 mg/kg, po administered once daily for 15 days; format: ADME, organism-based; design: route oral, dose 1 mg/kg, time 15 day; conditions: in vivo
[33] = AUClast in BALB/c mouse model of mBSA-induced delayed type hypersensitivity at 10 mg/kg, po administered twice daily for 7 days followed by mBSA challenge and measured after 24 hrs; format: ADME, organism-based; design: route oral, time 8 day, dose 10 mg/kg; conditions: in vivo
Cytochrome P450 2D6 = Cytochrome P450 2D6 (Homo sapiens, UniProt P10635); assay: Inhibition of CYP2D6 in human liver microsomes at 10 uM by LC-MS/MS analysis; format: ADME
Cytochrome P450 2D6, sequence (P10635 whole entry): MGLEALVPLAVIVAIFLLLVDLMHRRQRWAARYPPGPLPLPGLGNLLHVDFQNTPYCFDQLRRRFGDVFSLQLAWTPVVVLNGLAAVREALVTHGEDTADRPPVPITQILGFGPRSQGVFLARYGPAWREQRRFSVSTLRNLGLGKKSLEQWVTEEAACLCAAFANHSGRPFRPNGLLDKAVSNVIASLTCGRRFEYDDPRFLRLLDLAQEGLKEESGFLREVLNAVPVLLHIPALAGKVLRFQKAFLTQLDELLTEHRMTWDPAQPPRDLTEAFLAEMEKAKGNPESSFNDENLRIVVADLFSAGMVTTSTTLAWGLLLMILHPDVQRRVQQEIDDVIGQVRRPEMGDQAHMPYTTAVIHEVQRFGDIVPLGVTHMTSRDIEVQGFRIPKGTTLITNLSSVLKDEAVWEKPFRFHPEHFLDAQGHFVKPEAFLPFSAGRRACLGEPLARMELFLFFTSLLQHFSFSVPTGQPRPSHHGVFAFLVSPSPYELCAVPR

[34] = Half life in BALB/c mouse at 10 mg/kg, po measured upto 24 hrs by LC-MS/MS analysis; format: ADME, organism-based; conditions: in vivo
[35] = Metabolic stability in dog liver microsomes preincubated for 5 mins followed by NADPH addition and measured upto 30 mins by LC-MS/MS analysis; format: ADME, Canis lupus familiaris, Microsome; conditions: 0.5 h, time <=35 min
[36] = AUClast in rat at 1 mg/kg/day; format: ADME, organism-based; design: time 0 - last, dose 1 mg/kg/day; conditions: in vivo

Compound: Cc1c(-c2ccc(NC(=O)c3c(F)cccc3F)cc2)cccc1-c1nn(C)c(=O)o1
- Cmax [1]: 4500 nM
- AUC(0-t) at 192 h [2]: 8.3 µM·h
- AUC(0-t) at 360 h [3]: 13 µM·h
- Cmax [4]: 1570 nM
- Stability [5]: Stable
- Cmax [6]: 5440 ng/mL
- Tmax [7]: 4.8 min
- AUC(0-t) at 24 h [8]: 29 µM·h
- MED [9]: 80 mg/kg
- Tmax [10]: 4 h
- Cmax [11]: 2 µM and 843 ng/mL
- Tmax [12]: 1 h
- Tmax [13]: 8 h
- concentration [14]: 667 nM
- AUC(0-t) at 360 h [15]: 80 µM·h
- AUC(0-t) at 192 h [16]: 3.1 µM·h
- Cmax [17]: 1900 nM
- Tmax [18]: 4.8 min
- Cmax [19]: 1600 nM
- Tmax [20]: 2 h
- inhibition (INH) (Cytochrome P450 1A2): Not Active
- Cmax [21]: 3300 nM
- Cmax [22]: 600 nM
- Cmax [23]: 1760 nM
- IC50 (ORAI1/STIM1): 76 nM
- Tmax [24]: 2 h
- Tmax [25]: 2 h
- MED [26]: 1 mg/kg
- AUC(0-t) at 336 h [27]: 7050 ng·h/mL
- Cmax [28]: 530 ng/mL
- Stability [29]: Stable
- IC50 [30]: > 10000 nM
- Cmax [31]: 2000 nM
- AUC(0-t) at 360 h [32]: 36 µM·h
- AUC(0-t) at 192 h [33]: 17 µM·h
- inhibition (INH) (Cytochrome P450 2D6): Not Active
- half-life [34]: 5.3 h
- Stability [35]: Stable
- AUC(0-t) [36]: 36 µM·h and 15200 ng·h/mL

- Stability [5]: Stable
- Tmax [7]: 4.8 min
- AUC(0-t) at 24 h [8]: 28 µM·h
- Tmax [13]: 2 h
- Tmax [18]: 4.8 min
- inhibition (INH) (Cytochrome P450 1A2): Not Active
- Stability [29]: Stable
- inhibition (INH) (Cytochrome P450 2D6): Not Active
- half-life [34]: 6 h
- Stability [35]: Stable
Compound: Cc1c(-c2ccc(NC(=O)c3c(F)cccc3Cl)cc2)cccc1-c1nn(C)c(=O)o1
